US7625713B2, “Process for identifying a ligand that binds to the NEP binding site for the SMR1 pentapeptide” (Institut Pasteur, priority 2000, dated 2009)
Where a SMILES comes first, the peptide text is derived from it.

Legend:
NEP = molecular target: T1, NEP (Rattus norvegicus, UniProt P07861); experiment: Met-enkephalin hydrolysis by rat spinal cord slices and membrane preparations, RP-HPLC analysis; type: biochemical; conditions: 10 μM combined with the inhibitors of CPB and DPPIV (10 μM), spinal cord slices, 20 min at 25° C.
T1 construct: incubations of membrane and fresh tissue slice preparations from nervous tissues; from tissue; host or cells: dorsal spinal cord of male Wistar rats (fresh slices or 100 000 x g membrane fraction)
T1 sequence (P07861 1-750): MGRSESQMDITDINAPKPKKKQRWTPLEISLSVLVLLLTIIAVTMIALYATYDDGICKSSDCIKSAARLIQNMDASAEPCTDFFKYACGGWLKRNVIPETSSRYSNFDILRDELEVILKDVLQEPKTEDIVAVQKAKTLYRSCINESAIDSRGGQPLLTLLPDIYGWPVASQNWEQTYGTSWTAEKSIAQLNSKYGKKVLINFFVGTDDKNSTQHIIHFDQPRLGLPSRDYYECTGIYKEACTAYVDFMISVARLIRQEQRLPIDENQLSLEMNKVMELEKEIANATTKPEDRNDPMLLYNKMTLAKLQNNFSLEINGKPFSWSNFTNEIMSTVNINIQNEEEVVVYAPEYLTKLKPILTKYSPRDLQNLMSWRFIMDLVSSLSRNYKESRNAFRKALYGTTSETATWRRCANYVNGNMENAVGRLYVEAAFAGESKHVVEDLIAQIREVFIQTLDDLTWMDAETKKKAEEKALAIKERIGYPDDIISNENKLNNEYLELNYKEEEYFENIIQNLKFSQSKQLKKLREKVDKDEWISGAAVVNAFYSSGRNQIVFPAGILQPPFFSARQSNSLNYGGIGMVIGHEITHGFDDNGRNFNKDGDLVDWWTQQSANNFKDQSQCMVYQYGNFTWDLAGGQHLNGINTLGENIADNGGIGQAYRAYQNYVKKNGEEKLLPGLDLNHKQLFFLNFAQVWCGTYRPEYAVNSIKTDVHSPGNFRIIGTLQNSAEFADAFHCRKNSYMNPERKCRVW
Experimental: FIG. 2-B: […] Retention time) recovered after 20 min. incubation at 25° C. with 1 mg fresh tissue slices in a 1 ml final volume of KRBG buffer. The organs are rapidly removed, dissected on ice, freed of nerve fibers and of adipose tissues and then washed in cold oxygenated glucose- and bicarbonate-containing Krebs Ringer (KRBG) solution, whose composition is the following: 120 mM NaCl-5 mM KCl-1.2 mM KH2PO4-27.5 mM NaHCO3-2.6 mM CaCl2-0.67 mM MgSO4-5.9 mM glucose. The slices of tissues are prepared either manually with the aid of a scalpel (1-2 mm thick), or mechanically with the aid of a “Tissue Chopper” (1 mm thick). Slices are then dispersed into reaction tubes where they are subjected to three successive washes in ice-cold oxygenated KRBG. […] The organs dissected out and washed in ice-cold KRBG are homogenized at 4° C. in 10 volumes (vol./wt.) of 50 mM Tris/HCl buffered at pH 7.2, using a Teflon-glass homogenizer (3×5 sec.). […] The metabolism rate of the NEP-sensitive peptides was measured using the both NEP substrates involved in the signaling of the nociceptive response: the neuropeptides Met-enkephalin and Substance P. […] Their identification and relative quantification (peak height) are checked by continuously monitoring the UV absorbance at 254 nm of column outflow. […]

Chelating-FPLC analyses = type: physicochemical
Text: Otherwise, tissue-uptake of the sialorphin peptide involves a complex molecular species, including a cation mineral element, as the peptide was only recovered in the presence of a strong divalent metal ion chelating agent (Rougeot, C. et al. (1997), American Journal of Physiology 273, […]-20). […] The zinc ion, an essential component of the NEP catalytic site, is a common target of synthetic potent NEP inhibitors described elsewhere.

inhibition of Met-enkephalinase activity (Met-enkephalin degradation) (NEP): 80%
Compound: N=C(N)NCCC[C@H](NC(=O)[C@@H]1CCCN1C(=O)[C@H](CC(N)=O)NC(=O)[C@H](Cc1c[nH]cn1)NC(=O)[C@@H](N)CCC(N)=O)C(=O)O [sialorphin, Gln-His-Asn-Pro-Arg] (H-QHNPR-OH; N-terminus and C-terminus assumed)
zinc-chelating property (Chelating-FPLC analyses): selective and strong zinc-chelating group
